According to PMC12006171, “Marsupial cathelicidins: characterization, antimicrobial activity and evolution in this unique mammalian lineage” (Frontiers in Immunology, 2025):
Values after ≈ are worked out from the molar mass of the structure shown. Like-named read-outs stand apart in the source and are kept apart here. Where a SMILES comes first, the peptide text is derived from it.

What was measured:
[1] = test system: Staphylococcus aureus clinical isolate – animal, penicillin-resistant (PRSA); format: cell-based; conditions: clinical isolate – animal, penicillin-resistant (PRSA)
Summary of the method: (§1)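 MIC defined as lowest peptide level preventing visible growth after 20–24 h at 35°C. Candida tested in RPMI-1640 MOPS; bacteria in Mueller Hinton broth, optionally with 10% lysed horse blood and/or divalent cations. Final peptide range 64-0.125 μg/mL, starting inoculum 5 x 10^5 CFU/mL, per CLSI M07-A/M26A.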

[2] = test system: Staphylococcus aureus clinical isolate – animal, methicillin-resistant (MRSA); format: cell-based; conditions: clinical isolate – animal, methicillin-resistant
Summary of the method: as §1

[3] = test system: three fungi (Candida krusei, Candida parapsilosis, Candida albicans); assay: Antifungal screening, summary over the panel of fungi (broth microdilution); format: cell-based; conditions: synthesized mature peptide; antimicrobial screening Phase I; Y/N summary over fungi tested, broth microdilution
Procedure: Antimicrobial testing of 78 cathelicidin MPs was performed in two phases as outlined in Figure 1 . In phase I, 40 peptides (27 extant and 13 ancestral) were selected for testing based on rank (outlined above) and similarity to published marsupial cathelicidins with known antimicrobial activity ([33], [41]–[43]). These peptides were tested against nine bacteria (Staphylococcus aureus ATCC 29213 and clinical isolate, Escherichia coli ATCC 25922 and clinical isolate, Pseudomonas aeruginosa ATCC 27853 and clinical isolate, Streptococcus agalactiae ATCC 12386 and clinical isolate, Streptococcus pneumoniae ATCC 49619) and three fungi (Candida krusei ATCC 6258, Candida parapsilosis ATCC 22019, and Candida albicans clinical isolate). Details regarding these strains are available in Supplementary Table 4 . The antimicrobial activity of cathelicidins was determined as the minimum inhibitory concentration (MIC), which was the lowest concentration of cathelicidin that prevented visible bacterial or fungal growth, relative to the negative control. […] Minimum bactericidal concentration (MBC) and/or minimum fungicidal concentration (MFC) was conducted to determine microbicidal versus static action. Activity against S. aureus ATCC, E. coli ATCC, and Pseudomonas aeruginosa ATCC 27853 was examined in the presence of divalent cations to determine the impact of inhibitors.
Antimicrobial activity was determined using a broth microdilution susceptibility assay in 96 well polypropylene plates according to Clinical Laboratory Standards Institute guidelines M07-A and M26A as described previously ([33], [42], [43]). The bacterial and fungal isolates from humans and animals used in this study are outlined in Supplementary Table 4 . Only yeasts were included in the panel of fungi as they have been used in the susceptibility testing of eutherian ([3], [81]–[83]) and other marsupial cathelicidins previously ([33], [42], [43]). Cathelicidin mature peptides were solubilized in DMSO and serially diluted in duplicate from 128-0.25μg/mL in a final volume of 100µL. For bacteria, cathelicidins were diluted in Mueller Hinton Broth (MHB) with or without 10% lysed horse blood, and with (MH II B) or without (MHB) calcium and magnesium cations. For fungi, cathelicidins were diluted in Roswell Park Memorial Institute medium (RPMI)-1640 MOPS. Ampicillin or tetracycline were included as a positive control for Gram-positive and -negative bacteria respectively, while amphotericin B was used for fungi. A media-only negative control and growth control (no cathelicidin) were also included on each plate. Bacteria were sub-cultured on Muller Hinton agar (MHA) or sheep blood agar (BA), and fungi on Sabouraud dextrose agar (SAB), 20–24 hours prior to the test. Colonies were suspended in saline, the concentration adjusted to a 0.5 McFarland standard, and then diluted in media to a concentration of 1.0 x 10^6 cells/mL. Then, 100μL was added to each well of the cathelicidin dilution plate, giving a final inoculum density of 5 x 10^5 CFU/mL and cathelicidin concentration of 64-0.125μg/mL. Colony counts were performed on MHA/BA/SAB to confirm inoculum density. All plates were incubated at 35°C for 20–24 hours, depending on the strain.
Colonies were counted and compared to the colony count of the starting inoculum.

[4] = test system: six bacteria (S. aureus, E. coli, P. aeruginosa; ATCC and clinical isolate); format: cell-based; conditions: synthesized mature peptide; antimicrobial screening Phase I; Y/N summary over bacteria tested, broth microdilution
Summary of the method: (§2)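 Each isolate was exposed to twofold peptide dilutions (final 64-0.125μg/mL) in Mueller Hinton broth, optionally supplemented with calcium and magnesium or 10% lysed horse blood. The MIC was taken as the lowest concentration lacking visible growth after 20–24 hours at 35°C.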

S. aureus ATCC 29213 = assay: Killing kinetics (time kill assay); format: cell-based, Staphylococcus aureus; conditions: MHB, 35°C, sampled 1-24 hours, n = 2
Procedure: The killing kinetics assay was conducted using mid-logarithmic phase cultures of E. coli ATCC 25922 and S. aureus ATCC 29213 in MHB. Cultures were adjusted to a 0.5 McFarland standard, diluted in MHB, and then 100µL was added to each culture tube containing 10mL pre-warmed MHB to give a final inoculum concentration of 5 x 10^5 CFU/mL. A sterility control of 100uL MHB, growth control (no cathelicidin), and vehicle control (DMSO) were also included. Furthermore, 10uL was immediately removed from the growth control tube, diluted 1/1000 in saline and 100µL plated onto MHA in duplicate to confirm inoculum density. To establish colony counts from 0 hours of cathelicidin treatment, 200µL was removed from each culture tube and serially diluted ten-fold in saline from 10^0 to […] in a total volume of 200µL. Then, 10µL of each dilution was spotted onto MHA in duplicate, which were incubated at 35°C for 24 hours.
All culture tubes were then incubated at 35°C static. At 1, 2, 4, 6, 8, 10, 12, and 24 hours post-cathelicidin treatment, 200µL was removed from each culture tube for dilution and plated on MHA as described above. […] Counts of duplicates were averaged, and the log10 CFU/mL graphed against time. This was used as input for one-way ANOVA (p < 0.05) followed by Dunnett’s post hoc test.

[5] = test system: Streptococcus pneumoniae ATCC 49619; assay: microbe, parasite or virus in culture; format: cell-based; conditions: ATCC 49619; read-out: MIC S. pneumoniae ATCC
Summary of the method: as §1

[6] = test system: Streptococcus agalactiae Clinical isolate - animal; assay: microbe, parasite or virus in culture; format: cell-based; conditions: clinical isolate - animal; read-out: MIC S. agalactiae
Summary of the method: as §1

[7] = test system: Streptococcus agalactiae ATCC 12386; assay: microbe, parasite or virus in culture; format: cell-based; conditions: ATCC 12386; read-out: MIC S. agalactiae ATCC
Summary of the method: as §1

[8] = test system: Pseudomonas aeruginosa clinical isolate - animal; assay: microbe, parasite or virus in culture; format: cell-based; conditions: clinical isolate - animal; read-out: MIC P. aeruginosa
Summary of the method: as §2

[9] = test system: Staphylococcus aureus clinical isolate - animal; assay: microbe, parasite or virus in culture; format: cell-based
Summary of the method: as §2

[10] = test system: Pseudomonas aeruginosa ATCC 27853; assay: microbe, parasite or virus in culture; format: cell-based; conditions: ATCC 27853; read-out: MIC P. aeruginosa ATCC
Summary of the method: as §2

[11] = test system: Escherichia coli clinical isolate - animal; assay: microbe, parasite or virus in culture; format: cell-based
Summary of the method: as §2

[12] = test system: Escherichia coli ATCC 25922; assay: microbe, parasite or virus in culture; format: cell-based
Summary of the method: as §2

[13] = test system: Staphylococcus aureus ATCC 29213; assay: microbe, parasite or virus in culture; format: cell-based
Summary of the method: as §2

[14] = clinical isolate, MHB without cations, 5 x 10^5 CFU/mL, 35°C 20–24 hours, duplicate
[15] = clinical isolate, superscript value, cation-adjusted Mueller Hinton broth
[16] = clinical isolate, value in brackets, 99.9% reduction in CFU/mL

- MIC PRSA [1]: 4.6 µM (≈ 15.8 µg/mL)
- MIC MRSA [2]: 9.3 µM (≈ 31.9 µg/mL)
- Antifungal (MIC <64ug/mL) [3]: N (Antifungal (MIC <64ug/mL))
- Antibacterial (MIC <64ug/mL) [4]: Y (Antibacterial (MIC <64ug/mL))
- MIC [5]: >18.6 µM
- MIC [6]: >18.6 µM
- MIC [7]: >18.6 µM
- MIC [8]: >18.6 µM
- MIC ([9]; clinical isolate - animal, read-out: MIC S. aureus): 9.3 µM (≈ 31.9 µg/mL)
- MIC ([9]; clinical isolate - animal, read-out: MIC in the presence of cations S. aureus): 4.6 µM
- MIC S. aureus [9, 14]: 32 µg/mL (≈ 9.33 µM)
- MIC in the presence of cations S. aureus [9, 15]: 16 µg/mL
- MIC [10]: >18.6 µM
- MIC ([11]; clinical isolate - animal): 9.3 µM (≈ 31.9 µg/mL)
- MIC in the presence of cations E. coli ([11]; clinical isolate - animal): 18.6 µM
- MIC E. coli [11, 14]: 32 µg/mL (≈ 9.33 µM)
- MIC in the presence of cations E. coli [11, 15]: 64 µg/mL
- MIC ([12]; ATCC 25922, read-out: MIC E. coli ATCC): 9.3 µM (≈ 31.9 µg/mL)
- MIC ([12]; ATCC 25922, read-out: MIC in the presence of cations E. coli ATCC): 9.3 µM
- MIC E. coli ATCC ([12]; MHB without cations, 5 x 10^5 CFU/mL, 35°C 20–24 hours, duplicate): 32 µg/mL (≈ 9.33 µM)
- MIC in the presence of cations E. coli ATCC ([12]; superscript value, cation-adjusted Mueller Hinton broth): 32 µg/mL
- MIC S. aureus ATCC ([13]; ATCC 29213): 16 µg/mL (≈ 4.66 µM)
- MIC in the presence of cations S. aureus ATCC ([13]; superscript value, cation-adjusted Mueller Hinton broth (calcium and magnesium)): 32 µg/mL
Structure (SMILES): CC[C@H](C)[C@H](NC(=O)[C@H](CCCCN)NC(=O)CNC(=O)[C@H](CC(C)C)NC(=O)CNC(=O)[C@H](CCC(N)=O)NC(=O)CNC(=O)[C@H](CC(C)C)NC(=O)[C@@H]1CCCN1C(=O)[C@H](CCCCN)NC(=O)[C@H](CCSC)NC(=O)[C@H](CC(C)C)NC(=O)[C@H](CCCCN)NC(=O)[C@H](CCCCN)NC(=O)[C@H](CCCCN)NC(=O)CNC(=O)CNC(=O)[C@H](CCCNC(=N)N)NC(=O)[C@@H](N)CCCCN)C(=O)N[C@@H](CC(C)C)C(=O)N[C@@H](CCCCN)C(=O)N[C@@H](Cc1c[nH]cn1)C(=O)N[C@@H](Cc1ccccc1)C(=O)N[C@@H](CC(N)=O)C(=O)N[C@H](C(=O)N[C@@H](CC(=O)O)C(=O)N[C@@H](Cc1ccccc1)C(=O)N[C@@H](CS)C(=O)NCC(=O)N[C@@H](CC(N)=O)C(=O)N[C@@H](CS)C(=O)O)[C@@H](C)CC [MAP11] (H-KRGGKKKLMKPLGQGLGKILKHFNIDFCGNC-OH; N-terminus and C-terminus assumed)
- MBC PRSA [1]: 4.6 µM (≈ 15.8 µg/mL)
- MBC MRSA [2]: 9.3 µM (≈ 31.9 µg/mL)
- Number of hours to cause a significant reduction in log CFU/mL of S. aureus ATCC (p < 0.05) (S. aureus ATCC 29213; 0.5x MIC): 4 hours
- Number of hours to cause a significant reduction in log CFU/mL of S. aureus ATCC (p < 0.05) (S. aureus ATCC 29213; 2x MIC): 2 hours
- Number of hours to cause a significant reduction in log CFU/mL of S. aureus ATCC (p < 0.05) (S. aureus ATCC 29213; MIC): 4 hours
- MBC S. aureus ([9]; clinical isolate - animal): 9.3 µM
- MBC S. aureus [9, 16]: 32 µg/mL
- MBC E. coli ([11]; clinical isolate - animal): 9.3 µM
- MBC E. coli [11, 16]: 32 µg/mL
- MBC E. coli ATCC ([12]; ATCC 25922): 18.6 µM
- MBC E. coli ATCC ([12]; value in brackets, 99.9% reduction in CFU/mL): 64 µg/mL
- MBC S. aureus ATCC ([13]; value in brackets, 99.9% reduction in CFU/mL relative to starting inoculum): 32 µg/mL (≈ 9.33 µM)
